Laboratory results as given in the NIST ThermoML archive (doi:10.1021/acs.jced.5b00285).

Conditions: 101.33 kPa, Liquid; for electrical conductivity: Alternating current cell with electrodes; for mass density: Vibrating tube method

CCCCn1cc[n+](C)c1.O=S(=O)([N-]S(=O)(=O)C(F)(F)C(F)(F)F)C(F)(F)C(F)(F)F [1-butyl-3-methylimidazolium bis(perfluoroethylsulfonyl)imide]
Conditions | electrical conductivity [S/m] | mass density [kg/m3] | viscosity [mPa·s]
273.15 K | 0.0324 | 1539.6 | 579.1
278.15 K | 0.046 | 1534 | 398.8
283.15 K | 0.0634 | 1528.5 | 282.2
288.15 K | 0.0853 | 1523.88 | 205.3
293.15 K | 0.112 | 1518.55 | 153.3
298.15 K | 0.145 | 1513.25 | 115.9
303.15 K | 0.183 | 1507.96 | 89.72
308.15 K | 0.227 | – | –
313.15 K | 0.278 | 1497.47 | 56.57
318.15 K | 0.336 | – | –
323.15 K | 0.4 | 1487.06 | 37.86
328.15 K | 0.475 | – | –
333.15 K | 0.549 | 1476.73 | 26.63
338.15 K | 0.638 | – | –
343.15 K | 0.724 | 1466.47 | 19.48
348.15 K | 0.831 | – | –
353.15 K | 0.928 | 1456.27 | 14.74
358.15 K | 1.05 | – | –
363.15 K | – | 1446.14 | 11.48
368.15 K | 1.29 | – | –
378.15 K | 1.56 | – | –
388.15 K | 1.86 | – | –
398.15 K | 2.16 | – | –
408.15 K | 2.49 | – | –
418.15 K | 2.83 | – | –
428.15 K | 3.19 | – | –
438.15 K | 3.56 | – | –
448.15 K | 3.94 | – | –
458.15 K | 4.33 | – | –
468.15 K | 4.72 | – | –

CCCCCC[n+]1ccn(C)c1.O=S(=O)([N-]S(=O)(=O)C(F)(F)F)C(F)(F)F
Conditions | electrical conductivity [S/m] | mass density [kg/m3] | viscosity [mPa·s]
278.15 K | 0.0776 | 1391.02 | 210.6
283.15 K | – | 1386.34 | –
288.15 K | 0.136 | 1381.65 | 116.7
293.15 K | – | 1376.98 | –
298.15 K | 0.218 | 1372.35 | 70.51
303.15 K | – | 1367.74 | –
308.15 K | 0.328 | 1363.15 | 45.51
313.15 K | – | 1358.58 | –
318.15 K | 0.466 | 1354.02 | 31.03
323.15 K | – | 1349.49 | –
328.15 K | 0.634 | 1344.97 | 22.14
333.15 K | – | 1340.47 | –
338.15 K | 0.83 | 1335.98 | 16.4
343.15 K | – | 1331.51 | –
348.15 K | 1.05 | 1327.05 | 12.59
353.15 K | – | 1322.61 | –
358.15 K | 1.3 | 1318.18 | 9.957
363.15 K | – | 1313.77 | –
368.15 K | 1.58 | – | 8.066
378.15 K | 1.88 | – | 6.673
388.15 K | 2.19 | – | 5.623
398.15 K | 2.53 | – | 4.819
408.15 K | 2.88 | – | 4.19
418.15 K | 3.24 | – | –
428.15 K | 3.62 | – | –
438.15 K | 4.01 | – | –
448.15 K | 4.41 | – | –
458.15 K | 4.82 | – | –
468.15 K | 5.24 | – | –
